Structures are written as SMILES. Some results are limits rather than exact numbers.

CDK12 wt/CycK, sequence (Q9NYV4 whole entry): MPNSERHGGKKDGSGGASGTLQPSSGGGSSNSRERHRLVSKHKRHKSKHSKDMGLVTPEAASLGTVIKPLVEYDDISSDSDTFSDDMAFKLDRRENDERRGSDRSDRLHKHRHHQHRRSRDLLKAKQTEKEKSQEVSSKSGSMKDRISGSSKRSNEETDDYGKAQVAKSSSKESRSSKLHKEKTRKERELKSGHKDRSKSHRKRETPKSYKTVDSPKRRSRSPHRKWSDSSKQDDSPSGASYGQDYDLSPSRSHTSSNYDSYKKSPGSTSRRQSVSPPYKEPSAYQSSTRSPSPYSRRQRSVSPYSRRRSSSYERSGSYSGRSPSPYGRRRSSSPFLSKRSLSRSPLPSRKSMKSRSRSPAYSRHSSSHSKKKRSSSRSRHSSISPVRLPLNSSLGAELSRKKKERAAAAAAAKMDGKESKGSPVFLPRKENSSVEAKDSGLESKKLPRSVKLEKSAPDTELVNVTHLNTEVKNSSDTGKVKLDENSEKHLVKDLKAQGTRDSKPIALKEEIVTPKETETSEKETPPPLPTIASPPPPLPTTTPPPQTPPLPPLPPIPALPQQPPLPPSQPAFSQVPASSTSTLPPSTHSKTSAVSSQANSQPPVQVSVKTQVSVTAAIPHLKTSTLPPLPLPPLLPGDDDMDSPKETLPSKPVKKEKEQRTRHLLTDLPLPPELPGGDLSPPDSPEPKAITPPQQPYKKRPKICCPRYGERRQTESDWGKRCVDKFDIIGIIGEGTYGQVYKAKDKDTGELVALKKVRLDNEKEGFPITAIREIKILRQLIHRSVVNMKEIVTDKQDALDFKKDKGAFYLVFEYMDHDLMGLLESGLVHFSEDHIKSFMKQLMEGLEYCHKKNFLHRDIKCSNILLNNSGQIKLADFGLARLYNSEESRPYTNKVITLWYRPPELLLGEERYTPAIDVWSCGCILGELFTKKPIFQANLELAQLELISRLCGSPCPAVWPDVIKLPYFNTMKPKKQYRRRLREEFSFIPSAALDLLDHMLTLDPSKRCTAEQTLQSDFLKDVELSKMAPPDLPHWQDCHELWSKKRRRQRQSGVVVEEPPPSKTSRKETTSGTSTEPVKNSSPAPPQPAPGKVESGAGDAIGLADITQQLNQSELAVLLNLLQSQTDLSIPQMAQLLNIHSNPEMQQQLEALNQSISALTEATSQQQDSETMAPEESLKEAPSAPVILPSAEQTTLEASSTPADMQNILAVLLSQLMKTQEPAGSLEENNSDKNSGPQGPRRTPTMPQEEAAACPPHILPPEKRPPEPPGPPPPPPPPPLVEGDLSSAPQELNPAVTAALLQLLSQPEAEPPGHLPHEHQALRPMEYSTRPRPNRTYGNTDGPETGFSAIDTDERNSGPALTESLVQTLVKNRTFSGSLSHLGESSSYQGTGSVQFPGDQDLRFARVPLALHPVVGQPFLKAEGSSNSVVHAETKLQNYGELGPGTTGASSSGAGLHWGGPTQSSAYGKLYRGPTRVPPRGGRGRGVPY
CDK12 wt/CycK, sequence (O75909 whole entry partner): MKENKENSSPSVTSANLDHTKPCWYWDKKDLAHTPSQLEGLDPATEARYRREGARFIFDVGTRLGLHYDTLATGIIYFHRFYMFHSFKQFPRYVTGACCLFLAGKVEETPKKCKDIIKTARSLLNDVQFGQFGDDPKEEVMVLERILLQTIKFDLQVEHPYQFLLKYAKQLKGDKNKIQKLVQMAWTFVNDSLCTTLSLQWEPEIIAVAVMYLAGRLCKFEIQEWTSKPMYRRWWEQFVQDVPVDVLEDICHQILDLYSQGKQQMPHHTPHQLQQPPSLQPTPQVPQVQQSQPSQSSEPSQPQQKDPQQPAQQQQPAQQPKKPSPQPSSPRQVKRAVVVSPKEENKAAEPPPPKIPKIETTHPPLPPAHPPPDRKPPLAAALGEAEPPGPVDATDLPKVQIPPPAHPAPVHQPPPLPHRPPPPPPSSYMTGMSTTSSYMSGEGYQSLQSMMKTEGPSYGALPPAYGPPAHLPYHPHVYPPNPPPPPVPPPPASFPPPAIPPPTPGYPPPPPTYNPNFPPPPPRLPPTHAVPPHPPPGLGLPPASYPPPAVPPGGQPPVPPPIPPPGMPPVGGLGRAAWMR

The first assay addresses CDK12 wt/CycK (Homo sapiens (Human), UniProt Q9NYV4). In words: Radiometric protein kinase assay (33PanQinase Activity Assay), Assay Condition A (thiol containing conditions). The class given is biochemical.
Conditions: not given
The procedure: Example 1—Assay Condition A (Thiol Containing Conditions)
Objective: The IC50 profile of test compounds was determined using three protein kinases.
Test compounds: The compounds were provided as pre-weighed powders in vials. The compounds were dissolved to 1×10^−02M by adding DMSO. 100 μl of each of the resulting stock solutions were transferred into column 2 of four 96 well “master plates”.
Prior to testing, the 1×10^−02M stock solutions in column 2 of the master plates were subjected to a serial, semi-logarithmic dilution using 100% DMSO as a solvent. […] Column 1 and 7 were filled with 100% DMSO as controls. Subsequently, 2×10 μl from each well of the serial diluted copy plates were aliquoted with a 96 channel pipettor into two identical sets of “compound dilution plates”.
In the process, 90 μl H2O were added to each well of a set of compound dilution plates. To minimize potential precipitation, the H2O was added to each plate only a few minutes before the transfer of the compound solutions into the assay plates. Each plate was shaken thoroughly, resulting in a “compound dilution plate/10% DMSO”.
For the assays, 5 μl solution from each well of the compound dilution plates/10% DMSO were transferred into the assay plates. The final volume of the assay was 50 μl. All compounds were tested at 10 final assay concentrations in the range from 1×10^−04M to 3×10^−09M, in singlicate. The final DMSO concentration in the reaction cocktails was 1% in all cases.
Recombinant protein kinases: All protein kinases were expressed in Sf9 insect cells or in E. coli as recombinant GST-fusion proteins or His-tagged proteins, either as full-length or enzymatically active fragments. All kinases were produced from human cDNAs and purified by either GSH-affinity chromatography or immobilized metal. Affinity tags were removed from a number of kinases during purification. The purity of the protein kinases was examined by SDS-PAGE/Coomassie staining, the identity was checked by mass spectroscopy.
Protein kinase assay: A radiometric protein kinase assay (^33PanQinase® Activity Assay) was used for measuring the kinase activity of the three protein kinases. All kinase assays were performed in 96-well FlashPlates™ from PerkinElmer (Boston, Mass., USA) in a 50 μl reaction volume. The reaction cocktail was pipetted in four steps in the following order: • 20 μl of assay buffer (standard buffer) • 5 μl of ATP solution (in H2O) • 5 μl of test compound (in 10% DMSO) • 20 μl enzyme/substrate mix
The following amounts of enzyme and substrate were used per well:
The reaction cocktails were incubated at 30° C. for 60 minutes. The reaction was stopped with 50 μl of 2% (v/v) H3PO4, plates were aspirated and washed two times with 200 μl 0.9% (w/v) NaCl. Incorporation of ^33Pi was determined with a microplate scintillation counter (Microbeta, Wallac). All assays were performed with a BeckmanCoulter/SAGIAN™ Core System.
Evaluation of raw data: The median value of the counts in column 1 (n=8) of each assay plate was defined as “low control”. This value reflects unspecific binding of radioactivity to the plate in the absence of a protein kinase but in the presence of the substrate. The median value of the counts in column 7 of each assay plate (n=8) was taken as the “high control”, i.e. full activity in the absence of any inhibitor. The difference between high and low control was taken as 100% activity.
As part of the data evaluation the low control value from a particular plate was subtracted from the high control value as well as from all 80 “compound values” of the corresponding plate. The residual activity (in %) for each well of a particular plate was calculated by using the following formula: Res. Activity (%)=100×[(cpm of compound−low control)/(high control−low control)]
The residual activities for each concentration and the compound IC50 values were calculated using Quattro Workflow V3.1.1 (Quattro Research GmbH, Munich, Germany).
On to `C=CC(=O)Nc1ccc(C(=O)N2CC[C@@H](Nc3ccc(C#N)cn3)C2)cc1` [Example 147, (R)—N-(4-(3-((5-cyanopyridin-2-yl)amino)pyrrolidine-1-carbonyl)phenyl)acrylamide], for which the IC50 was 0.1 to 1 µM. In the case of `C=CC(=O)Nc1ccc(C(=O)N2CC[C@@H](Nc3ncc(Br)cn3)C2)cc1OCCN1CCOCC1` [Example 156, (R)—N-(4-(3-((5-bromopyrimidin-2-yl)amino)pyrrolidine-1-carbonyl)-2-(2-morpholinoethoxy)phenyl)acrylamide], the concentration for half-maximal inhibition (IC50) is 0.1 to 1 µM.

Still in this assay, the particulars now being: thiol containing conditions (1.2 mM DTT), ATP 0.3 μM; read-out: CDK12 IC50 Condition A.
Consider `C=CC(=O)Nc1ccc(C(=O)N2CC[C@@H](Nc3ncc(Cl)c(O)n3)C2)cc1` [Example 97, (R)—N-(4-(3-((5-chloro-4-hydroxypyrimidin-2-yl)amino)pyrrolidine-1-carbonyl)phenyl)acrylamide], for which the IC50 lay within 30 to 100 µM. Consider `C=CC(=O)Nc1ccc(C(=O)N2CC[C@@H](Nc3ncc(C(F)(F)F)c(N(C)C)n3)C2)cc1` [Example 118, (R)—N-(4-(3-((4-(dimethylamino)-5-(trifluoromethyl)pyrimidin-2-yl)amino)pyrrolidine-1-carbonyl)phenyl)acrylamide], for which the concentration for half-maximal inhibition (IC50) lay within 10 to 30 µM. As for `CN(C)C/C=C/C(=O)Nc1ccc(C(=O)N2CC[C@@H](Nc3ncc(Cl)cn3)C2)cc1` [Example 98, (R,E)-N-(4-(3-((5-chloropyrimidin-2-yl)amino)pyrrolidine-1-carbonyl)phenyl)-4-(dimethylamino)but-2-enamide], the 50% inhibitory concentration (IC50) is 1 to 10 µM. For the molecule `COc1nc(N[C@@H]2CCN(C(=O)c3ccc(NC(=O)/C=C/CN4CCOCC4)cc3)C2)ncc1Cl` [Example 168, (R,E)-N-(4-(3-((5-chloro-4-methoxypyrimidin-2-yl)amino)pyrrolidine-1-carbonyl)phenyl)-4-morpholinobut-2-enamide], the IC50 is 0.1 to 1 µM.

Take `N#CCC(=O)Nc1ccc(C(=O)N2CC[C@@H](Nc3ncc(Cl)cn3)C2)cc1` [Example 133, (R)—N-(4-(3-((5-chloropyrimidin-2-yl)amino)pyrrolidine-1-carbonyl)phenyl)-2-cyanoacetamide]: the IC50 fell in the range of 0.1 to 1 µM. The same measure, in the same setting: the result for `C=CC(=O)N(C)c1ccc(C(=O)N2CC[C@@H](Nc3ncc(C#N)cn3)C2)cc1` [Example 70, (R)—N-(4-(3-((5-cyanopyrimidin-2-yl)amino)pyrrolidine-1-carbonyl)phenyl)-N-methylacrylamide] reads 0.1 to 1 µM.

Consider `C=CC(=O)Nc1ccc(C(=O)N2CC[C@@H](Nc3ncc(Br)cn3)C2)cc1N1CCC(N(C)C)CC1` [Example 158, (R)—N-(4-(3-((5-bromopyrimidin-2-yl)amino)pyrrolidine-1-carbonyl)-2-(4-(dimethylamino)piperidin-1-yl)phenyl)acrylamide], for which the 50% inhibitory concentration (IC50) lay in the range of 0.1 to 1 µM.

For the molecule `C#Cc1cnc(N[C@@H]2CCN(C(=O)c3ccc(NC(=O)C=C)cc3)C2)nc1OC` [Example 182, (R)—N-(4-(3-((5-ethynyl-4-methoxypyrimidin-2-yl)amino)pyrrolidine-1-carbonyl)phenyl)acrylamide], the IC50 is < 0.1 µM. Consider `C=CC(=O)Nc1ccc(C(=O)N2CC[C@@H](Nc3ncc(Cl)c(OCCC#N)n3)C2)cc1` [Example 102, (R)—N-(4-(3-((5-chloro-4-(2-cyanoethoxy)pyrimidin-2-yl)amino)pyrrolidine-1-carbonyl)phenyl)acrylamide], for which the IC50 is < 0.1 µM. With `COc1nc(N[C@@H]2CCN(C(=O)c3ccc(NC(=O)/C=C/CN4CCCC(F)(F)C4)cn3)C2)ncc1Cl` [Example 172, (R,E)-N-(6-(3-((5-chloro-4-methoxypyrimidin-2-yl)amino)pyrrolidine-1-carbonyl)pyridin-3-yl)-4-(3,3-difluoropiperidin-1-yl)but-2-enamide], the IC50 is 0.1 to 1 µM. On the same count and under the same terms, to `[2H]C([2H])([2H])Oc1nc(N[C@@H]2CCN(C(=O)c3ccc(NC(=O)/C=C/CN(C)C)cc3)C2)ncc1Cl` [Example 114, (R,E)-N-(4-(3-((5-chloro-4-(trideuteromethoxy)pyrimidin-2-yl)amino)pyrrolidine-1-carbonyl)phenyl)-4-(dimethylamino)but-2-enamide] belongs 0.1 to 1 µM; to `C=CC(=O)Nc1ccc(C(=O)N2CC[C@@H](Nc3ncc(Cl)c(OCC)n3)C2)cc1N1CCN(C)CC1` [Example 119, (R)—N-(4-(3-((5-chloro-4-ethoxypyrimidin-2-yl)amino)pyrrolidine-1-carbonyl)-2-(4-methylpiperazin-1-yl)phenyl)acrylamide], 0.1 to 1 µM. As to `COc1nc(N[C@@H]2CCN(C(=O)c3ccc(NC(=O)/C=C/CN4CCC[C@@H](F)C4)cn3)C2)ncc1Cl` [Example 176, (E)-N-(6-((R)-3-((5-chloro-4-methoxypyrimidin-2-yl)amino)pyrrolidine-1-carbonyl)pyridin-3-yl)-4-((R)-3-fluoropiperidin-1-yl)but-2-enamide], the IC50 was 0.1 to 1 µM. In the case of `C=CC(=O)Nc1ccc(C(=O)N2CC[C@@H](Nc3ncc(Cl)c(OCC)n3)C2)cc1` [Example 96, (R)—N-(4-(3-((5-chloro-4-ethoxypyrimidin-2-yl)amino)pyrrolidine-1-carbonyl)phenyl)acrylamide], the IC50 was < 0.1 µM. On to `C=CC(=O)Nc1cc(C(=O)N2CC[C@@H](Nc3ncc(Cl)cn3)C2)nn1C` [Example 110, (R)—N-(3-(3-((5-chloropyrimidin-2-yl)amino)pyrrolidine-1-carbonyl)-1-methyl-1H-pyrazol-5-yl)acrylamide], for which the IC50 lay within 1 to 10 µM.

As for `C=CC(=O)Nc1ccc(C(=O)N2CC[C@](C)(Nc3ncc(Cl)cn3)C2)cc1` [Example 108, (S)—N-(4-(3-((5-chloropyrimidin-2-yl)amino)-3-methylpyrrolidine-1-carbonyl)phenyl)acrylamide], the IC50 lay in the range of 30 to 100 µM. With `C#Cc1cnc(N[C@@H]2CCN(C(=O)c3ccc(NC(=O)C=C)cc3)C2)nc1` [Example 181, (R)—N-(4-(3-((5-ethynylpyrimidin-2-yl)amino)pyrrolidine-1-carbonyl)phenyl)acrylamide], the half-inhibitory concentration (IC50) was < 0.1 µM.

On to `CN(C)/C=C(\C#N)C(=O)Nc1ccc(C(=O)N2CC[C@@H](Nc3ncc(Cl)cn3)C2)cc1` [Example 134, (R)—N-(4-(3-((5-chloropyrimidin-2-yl)amino)pyrrolidine-1-carbonyl)phenyl)-2-cyano-3-(dimethylamino)acrylamide], for which the concentration for half-maximal inhibition (IC50) is 0.1 to 1 µM. `C=CC(=O)Nc1ccc(C(=O)N2C[C@H](Nc3ncc(Cl)c(OC)n3)C[C@H]2C)cc1` [Example 183, N-(4-((2R,4R)-4-((5-chloro-4-methoxypyrimidin-2-yl)amino)-2-methylpyrrolidine-1-carbonyl)phenyl)acrylamide]: the half-inhibitory concentration (IC50) was < 0.1 µM. Regarding `C=CC(=O)Nc1ccc(C(=O)N2CC[C@@H](Nc3ncc(Cl)c(N4CCC4)n3)C2)cc1` [Example 89, (R)—N-(4-(3-((4-(azetidin-1-yl)-5-chloropyrimidin-2-yl)amino)pyrrolidine-1-carbonyl)phenyl)acrylamide], the IC50 was in the range of 0.1 to 1 µM. For the molecule `C=CC(=O)Nc1ccc(C(=O)N2C[C@H](Nc3ncc(Cl)c(OC)n3)C[C@@H]2C)cc1` [Example 180, N-(4-((2S,4R)-4-((5-chloro-4-methoxypyrimidin-2-yl)amino)-2-methylpyrrolidine-1-carbonyl)phenyl)acrylamide], the IC50 is < 0.1 µM. For the molecule `CN(C)C=C(C#N)C(=O)Nc1cccc(C(=O)N2CC[C@@H](Nc3ncc(Cl)cn3)C2)c1` [Example 135, (R)—N-(3-(3-((5-chloropyrimidin-2-yl)amino)pyrrolidine-1-carbonyl)phenyl)-2-cyano-3-(dimethylamino)acrylamide], the half-maximal inhibitory concentration (IC50) was in the range of 1 to 10 µM.
